Results on 21 compounds are retold here after patent US9284333B2, “Fused pyrroledicarboxamides and their use as pharmaceuticals” (SANOFI, priority 2012, dated 2016).

Sequence of Human TASK-1 channels (O14649 whole entry, the tested form may be a part): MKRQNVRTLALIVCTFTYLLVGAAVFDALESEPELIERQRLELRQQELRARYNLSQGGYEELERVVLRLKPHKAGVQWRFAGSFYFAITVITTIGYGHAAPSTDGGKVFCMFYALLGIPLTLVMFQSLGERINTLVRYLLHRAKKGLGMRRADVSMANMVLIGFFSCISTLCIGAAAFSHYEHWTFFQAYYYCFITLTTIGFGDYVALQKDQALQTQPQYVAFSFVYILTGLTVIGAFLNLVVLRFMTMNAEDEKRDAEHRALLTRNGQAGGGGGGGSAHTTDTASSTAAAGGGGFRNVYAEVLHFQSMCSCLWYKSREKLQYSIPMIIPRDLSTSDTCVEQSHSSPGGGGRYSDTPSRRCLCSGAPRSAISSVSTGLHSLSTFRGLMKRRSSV

One test addresses Human TASK-1 channels (Homo sapiens (Human), UniProt O14649). The experiment in a line: Determination of the activity on the TASK-1 channel in Xenopus oocytes (two-microelectrode voltage clamp). In kind it is cell-based. The following applies: compound concentration 5 μM. The method in brief:
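Xenopus oocytes were injected with human TASK-1 cRNA and recorded two days later by two-microelectrode voltage clamp, holding at −90 mV with 500 ms steps to 40 mV. Superfusion used ND96, pH 7.4, at room temperature, with rising compound concentrations; percentage inhibition of control current was fitted to a dose-response curve for IC50.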
The compound `C[C@H]1CCCN1C(=O)c1cc(C(=O)NCc2ccccc2Cl)c2n1CCOC2` [16an, 6-((S)-2-Methyl-pyrrolidine-1-carbonyl)-3,4-dihydro-1H-pyrrolo[2,1-c][1,4]oxazine-8-carboxylic acid 2-chloro-benzylamide] had an inhibition at 5 µM of 81%.

The same test, now with this note: compound concentration 10 μM (footnote a).
Compound `CC[C@@H](NC(=O)c1cc(C(=O)N(C)[C@@H](C)C(=O)N(C)C)n2c1COCC2)c1ccccc1` [16rk, 3,4-dihydro-1H-pyrrolo[2,1-c][1,4]oxazine-6,8-dicarboxylic acid 6-[((S)-1-dimethylcarbamoyl-ethyl)methyl-amide] 8-[((R)-1-phenyl-propyl)-amide]] came in with an inhibition at 10 µM of 70%.

The test is the same for the next values; noted with them: human TASK-1 expressed in Xenopus oocytes, room temperature; read-out: IC50 value for TASK-1 inhibition.
For the compound `CC[C@H](NC(=O)c1cc(C(=O)N[C@H](C)c2ccc(F)cc2)n2c1COCC2)c1ncccn1` [16h, 3,4-Dihydro-1H-pyrrolo[2,1-c][1,4]oxazine-6,8-dicarboxylic acid 6-{[(R)-1-(4-fluoro-phenyl)-ethyl]-amide} 8-[((S)-1-pyrimidin-2-yl-propyl)amide]], the half-inhibitory concentration (IC50) was determined as 0.24 µM. On the same count and under the same terms, for `CC[C@@H](NC(=O)c1cc(C(=O)N[C@H](C)c2ccc(F)cc2)n2c1COCC2)c1ccc(C(F)(F)F)nc1` [16g, 3,4-Dihydro-1H-pyrrolo[2,1-c][1,4]oxazine-6,8-dicarboxylic acid 6-{[(R)-1-(4-fluoro-phenyl)-ethyl]-amide} 8-{[(R)-1-(6-trifluoromethyl-pyridin-3-yl)-propyl]-amide}] the value was 0.29 µM. Still for that read-out and setting: for `CC[C@@H](NC(=O)c1cc(C(=O)NC(C)c2cnccn2)c2n1CCOC2)c1ccc(F)cc1F` (single isomer, unassigned) [16pk] the value was 0.19 µM; for `CC[C@@H](NC(=O)c1cc(C(=O)N2CCC[C@@H]2C)n2c1COCC2)c1cccnc1C(F)(F)F` [16r, 6-((S)-2-Methyl-pyrrolidine-1-carbonyl)-3,4-dihydro-1H-pyrrolo[2,1-c][1,4]oxazine-8-carboxylic acid [(R)-1-(2-trifluoromethyl-pyridin-3-yl)-propyl]-amide], 1.9 µM. As to `CC[C@@H](NC(=O)c1cc(C(=O)N2CCC[C@@H]2C)n2c1CCCC2)c1ccc(C#N)cc1` [16lx, 3-((S)-2-Methyl-pyrrolidine-1-carbonyl)-5,6,7,8-tetrahydro-indolizine-1-carboxylic acid [(R)-1-(4-cyano-phenyl)-propyl]-amide], the IC50 worked out at 0.2 µM.

Regarding `CC[C@@H](NC(=O)c1cc(C(=O)N2CCC[C@@H]2C)n2c1COCC2)c1ccc(C(F)(F)F)cc1` [16f, 6-((S)-2-Methyl-pyrrolidine-1-carbonyl)-3,4-dihydro-1H-pyrrolo[2,1-c][1,4]oxazine-8-carboxylic acid [(R)-1-(4-trifluoromethyl-phenyl)-propyl]-amide], the IC50 came to 0.068 µM.

Take `CC[C@@H](NC(=O)c1cc(C(=O)N2CCC[C@@H]2C)n2c1CCCC2)c1ccc(C(F)(F)F)nc1` [16lw, 3-((S)-2-Methyl-pyrrolidine-1-carbonyl)-5,6,7,8-tetrahydro-indolizine-1-carboxylic acid [(R)-1-(6-trifluoromethyl-pyridin-3-yl)-propyl]-amide]: the IC50 turned out to be 0.6 µM.

As for `CC[C@@H](NC(=O)c1cc(C(=O)NC(C2CC2)C2CC2)n2c1COCC2)c1ccc(C(F)(F)F)nc1` [16pa, 3,4-Dihydro-1H-pyrrolo[2,1-c][1,4]oxazine-6,8-dicarboxylic acid 6-dicyclopropylmethyl-amide 8-{[(R)-1-(6-trifluoromethyl-pyridin-3-yl)-propyl]-amide}], the IC50 came out at 1.5 µM. Take `CC[C@@H](NC(=O)c1cc(C(=O)NCc2ccc(C(=O)OC)cc2)n2c1COCC2)c1ccccc1` [16ir, 4-({[8-((R)-1-Phenyl-propylcarbamoyl)-3,4-dihydro-1H-pyrrolo[2,1-c][1,4]oxazine-6-carbonyl]-amino}-methyl)-benzoic acid methyl ester]: the IC50 turned out to be 0.35 µM.

As to `CC[C@@H](NC(=O)c1cc(C(=O)N[C@H](CC)c2ccc(C(F)(F)F)nc2)n2c1COCC2)c1ccccc1` [16id, 3,4-Dihydro-1H-pyrrolo[2,1-c][1,4]oxazine-6,8-dicarboxylic acid 8-[((R)-1-phenyl-propyl)-amide] 6-{[(R)-1-(6-trifluoromethyl-pyridin-3-yl)-propyl]-amide}], the IC50 stood at 0.53 µM. Take `CC[C@@H](NC(=O)c1cc(C(=O)N2CCCC2)n2c1COCC2)c1ccc(F)cc1F` [16de]: the IC50 turned out to be 0.049 µM. On to `CC[C@@H](NC(=O)c1cc(C(=O)N2CCCC2C(C)n2cccn2)n2c1COCC2)c1ccccc1` (stereo partly drawn) [16fw, 6-[2-(1-Pyrazol-1-yl-ethyl)-pyrrolidine-1-carbonyl]-3,4-dihydro-1H-pyrrolo[2,1-c][1,4]oxazine-8-carboxylic acid ((R)-1-phenyl-propyl)-amide], for which the IC50 came out at 0.42 µM. As for `CC[C@@H](NC(=O)c1cc(C(=O)N2CCC[C@@H]2C)n2c1COCC2)c1ccc(F)c(Cl)c1` [16cg, 6-((S)-2-Methyl-pyrrolidine-1-carbonyl)-3,4-dihydro-1H-pyrrolo[2,1-c][1,4]oxazine-8-carboxylic acid [(R)-1-(3-chloro-4-fluoro-phenyl)-propyl]-amide], the IC50 worked out at 0.015 µM.

For the compound `CC[C@@H](NC(=O)c1cc(C(=O)NCc2ncccn2)n2c1COCC2)c1ccccc1` [16hj, 3,4-Dihydro-1H-pyrrolo[2,1-c][1,4]oxazine-6,8-dicarboxylic acid 8-[((R)-1-phenyl-propyl)-amide] 6-[(pyrimidin-2-ylmethyl)-amide]], the IC50 came out at 0.53 µM. On the same count and under the same terms, for `CC[C@H](NC(=O)c1cc(C(=O)N[C@H](CC)c2ccccc2)c2n1CCCC2)c1ccccc1` [16mb, 5,6,7,8-Tetrahydro-indolizine-1,3-dicarboxylic acid 3-[((S)-1-phenyl-propyl)-amide] 1-[((R)-1-phenyl-propyl)-amide]] the value was 0.013 µM; for `CC[C@@H](NC(=O)c1cc(C(=O)NC(C)c2ncccn2)c2n1CCOC2)c1ccc(F)cc1Cl` (stereo partly drawn) [16kp, 3,4-Dihydro-1H-pyrrolo[2,1-c][1,4]oxazine-6,8-dicarboxylic acid 6-{[(R)-1-(2-chloro-4-fluoro-phenyl)-propyl]-amide} 8-[(1-pyrimidin-2-yl-ethyl)-amide]], 0.28 µM; for `CC[C@@H](NC(=O)c1cc(C(=O)N2CCC[C@@H]2c2cnccn2)n2c1COCC2)c1ccccc1` [16fp, 6-((R)-2-Pyrazin-2-yl-pyrrolidine-1-carbonyl)-3,4-dihydro-1H-pyrrolo[2,1-c][1,4]oxazine-8-carboxylic acid ((R)-1-phenyl-propyl)-amide], 1.9 µM.

In the case of `CC[C@@H](NC(=O)c1cc(C(=O)N2CCC[C@@H]2C)n2c1COCC2)c1ncc(C(F)(F)F)cn1` [16bh, 6-((S)-2-Methyl-pyrrolidine-1-carbonyl)-3,4-dihydro-1H-pyrrolo[2,1-c][1,4]oxazine-8-carboxylic acid [(R)-1-(5-trifluoromethyl-pyrimidin-2-yl)-propyl]-amide], the IC50 was 0.92 µM. Take `CC[C@@H](NC(=O)c1cc(C(=O)Nc2c(C)noc2C)n2c1CCCC2)c1ccccc1` [16nd, 5,6,7,8-Tetrahydro-indolizine-1,3-dicarboxylic acid 3-[(3,5-dimethyl-isoxazol-4-yl)-amide] 1-[((R)-1-phenyl-propyl)-amide]]: the IC50 is 0.21 µM.

For a further test, the system named is atrium of the anesthetized pig. The experiment in a line: Investigation of the refractory period and the left-atrial vulnerability in the anesthetized pig. In kind it is in vivo. As to conditions: Sus scrofa, iv, 0.1 mg/kg i.v. infusion over 1 h. Here is the method: Investigation of the Refractory Period and the Left-Atrial Vulnerability in the Pig
The compounds were tested for prolongation of the refractory period and antiarrhythmic activity on the atrium of the anesthetized pig as described in Knobloch K. et al., Naunyn-Schmiedeberg's Arch. Pharmacol. 2002, 366, 482-487. Here the anti-arrhythmic action relates to the inhibition of the occurrence of episodes of atrial arrhythmias which are induced by a prematurely placed extra-stimulus (S2) in the left atrium (=left-atrial vulnerability). The prolongation of the refractory period (refractoriness) is expressed as the increase in percent of the value of the refractory period 15 min after the end of administration of the test compound vs. the basal value before administration. Mean values of the prolongation of the refractory period are shown from three rates (150/min, 200/min and 250/min). The values for the inhibition of left atrial vulnerability (inhibition of episodes of arrhythmias) in percent refer to three measurements (three time points) before administration of the test compound vs. at least three measurements during the first hour after administration.
In Table 16, the action of compounds of the formula I from the examples above on the refractory period of the left atrium and their antiarrhythmic activity in the anesthetized pig after intravenous (i.v.) administration of the described dose is shown.
`CC[C@H](NC(=O)c1cc(C(=O)N[C@H](C)c2ccc(F)cc2)n2c1COCC2)c1ncccn1` [16h, 3,4-Dihydro-1H-pyrrolo[2,1-c][1,4]oxazine-6,8-dicarboxylic acid 6-{[(R)-1-(4-fluoro-phenyl)-ethyl]-amide} 8-[((S)-1-pyrimidin-2-yl-propyl)amide]] gave an inhibition in vivo at 0.1 mg/kg of 97%.

The test is the same for the next values; noted with them: Sus scrofa, iv, 0.3 mg/kg i.v. bolus injection.
With `CC[C@@H](NC(=O)c1cc(C(=O)N[C@H](C)c2ccc(F)cc2)n2c1COCC2)c1ccc(C(F)(F)F)nc1` [16g, 3,4-Dihydro-1H-pyrrolo[2,1-c][1,4]oxazine-6,8-dicarboxylic acid 6-{[(R)-1-(4-fluoro-phenyl)-ethyl]-amide} 8-{[(R)-1-(6-trifluoromethyl-pyridin-3-yl)-propyl]-amide}], the inhibition in vivo at 0.3 mg/kg stood at 100%.

The test is the same for the next values; noted with them: Sus scrofa, iv, 0.25 h, 0.1 mg/kg i.v. infusion over 1 h, read-out: % Prolongation of left atrial refractory period.
On to `CC[C@H](NC(=O)c1cc(C(=O)N[C@H](C)c2ccc(F)cc2)n2c1COCC2)c1ncccn1` [16h, 3,4-Dihydro-1H-pyrrolo[2,1-c][1,4]oxazine-6,8-dicarboxylic acid 6-{[(R)-1-(4-fluoro-phenyl)-ethyl]-amide} 8-[((S)-1-pyrimidin-2-yl-propyl)amide]], for which the change in vivo at 0.1 mg/kg is 42%.

Staying with this test, now noted: Sus scrofa, iv, 0.25 h, 0.3 mg/kg i.v. bolus injection, 15 min after administration vs basal, mean of three rates, read-out: % Prolongation of left atrial refractory period.
With `CC[C@@H](NC(=O)c1cc(C(=O)N[C@H](C)c2ccc(F)cc2)n2c1COCC2)c1ccc(C(F)(F)F)nc1` [16g, 3,4-Dihydro-1H-pyrrolo[2,1-c][1,4]oxazine-6,8-dicarboxylic acid 6-{[(R)-1-(4-fluoro-phenyl)-ethyl]-amide} 8-{[(R)-1-(6-trifluoromethyl-pyridin-3-yl)-propyl]-amide}], the change in vivo at 0.3 mg/kg came to 19%.

What is called inhibition is the share of the control response that was lost under treatment. Usually IC50 stands for the concentration that gives 50% inhibition. A word on the inhibition in vivo: it is how much of the control response was suppressed.
